# Test results published in ChEMBL document CHEMBL1201862, “PubChem BioAssay data set” (2004).
# The source made the active and inactive calls.
# Tests used:
# [1] = target: T1, Methionyl-tRNA synthetase, putative (Trypanosoma brucei brucei, UniProt Q38C91); type: functional, Trypanosoma brucei brucei strain 927/4 GUTat10.1
# T1 sequence (Q38C91 whole entry): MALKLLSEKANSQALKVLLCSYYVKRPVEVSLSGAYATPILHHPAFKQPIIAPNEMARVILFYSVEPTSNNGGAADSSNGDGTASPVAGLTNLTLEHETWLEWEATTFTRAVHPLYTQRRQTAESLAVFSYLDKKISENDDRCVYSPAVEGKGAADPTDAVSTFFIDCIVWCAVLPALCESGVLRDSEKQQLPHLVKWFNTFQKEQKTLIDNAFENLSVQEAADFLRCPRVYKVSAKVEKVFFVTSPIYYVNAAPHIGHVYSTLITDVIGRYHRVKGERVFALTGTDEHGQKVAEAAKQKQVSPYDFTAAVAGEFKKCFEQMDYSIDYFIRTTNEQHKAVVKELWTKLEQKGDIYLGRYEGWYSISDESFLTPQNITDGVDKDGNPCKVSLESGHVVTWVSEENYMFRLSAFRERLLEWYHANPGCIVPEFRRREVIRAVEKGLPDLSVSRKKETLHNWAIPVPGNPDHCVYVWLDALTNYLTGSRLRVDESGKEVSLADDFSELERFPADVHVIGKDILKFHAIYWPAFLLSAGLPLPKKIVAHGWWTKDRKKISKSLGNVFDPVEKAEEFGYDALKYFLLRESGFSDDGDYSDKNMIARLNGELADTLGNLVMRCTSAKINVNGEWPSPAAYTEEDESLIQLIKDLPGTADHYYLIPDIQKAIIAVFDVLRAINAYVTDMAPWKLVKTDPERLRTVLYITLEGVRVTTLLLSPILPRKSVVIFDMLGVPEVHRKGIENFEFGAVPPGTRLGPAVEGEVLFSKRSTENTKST
# [2] = Counterscreen for inhibitors of Trypanosoma brucei methionyl tRNA synthetase (MetRS): Luminescence-based cell-based high throughput dose response assay to identify compounds that are cytotoxic to Jurkat human T lymphocyte cells.; type: functional
# [3] = target: T1, Methionyl-tRNA synthetase, putative; type: functional, Trypanosoma brucei brucei strain 927/4 GUTat10.1; remark: listed apart in the source
# [4] = target: Fructose-bisphosphate aldolase (Mycobacterium tuberculosis, UniProt P9WQA3); experiment: Fluorescence-based biochemical high throughput dose response assay for inhibitors of the fructose-bisphosphate aldolase (FBA) of M. tuberculosis.; type: functional
# Galanin receptor type 3 = Galanin receptor type 3 (Homo sapiens, UniProt O60755); experiment: Fluorescence-based cell-based primary high throughput dose response assay to identify antagonists of the Galanin Receptor 3 (GalR3).; type: functional
# cells [5] = type: functional, cell-based; settings: HEK-CNG
# cells [6] = type: functional, cell-based
# [7] = target: T2, Trace amine-associated receptor 1 (Homo sapiens, UniProt Q96RJ0); experiment: Fluorescence-based cell-based high throughput dose response assay to identify agonists of the human trace amine associated receptor 1 (TAAR1).; type: functional
# T2 sequence (Q96RJ0 whole entry): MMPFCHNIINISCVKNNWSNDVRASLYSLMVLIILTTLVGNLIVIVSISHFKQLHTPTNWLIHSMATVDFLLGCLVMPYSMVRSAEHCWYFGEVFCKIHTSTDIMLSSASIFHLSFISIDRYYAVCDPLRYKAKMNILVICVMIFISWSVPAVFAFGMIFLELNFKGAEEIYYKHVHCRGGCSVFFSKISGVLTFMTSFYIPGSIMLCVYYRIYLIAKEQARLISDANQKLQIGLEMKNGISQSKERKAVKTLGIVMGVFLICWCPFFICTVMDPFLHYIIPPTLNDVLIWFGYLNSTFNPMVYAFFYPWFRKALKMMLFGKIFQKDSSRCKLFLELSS
# [8] = target: T2, Trace amine-associated receptor 1; experiment: Counterscreen for agonists of the human trace amine associated receptor 1 (hTAAR1): Fluorescence-based cell-based high throughput dose response assay to identify hTAAR1 agonist that also desensitize TAAR1 receptor response.; type: functional
# cells [9] = type: functional, cell-based; remark: listed apart in the source
# Chain of Galanin receptor type 3 (O60755 whole entry): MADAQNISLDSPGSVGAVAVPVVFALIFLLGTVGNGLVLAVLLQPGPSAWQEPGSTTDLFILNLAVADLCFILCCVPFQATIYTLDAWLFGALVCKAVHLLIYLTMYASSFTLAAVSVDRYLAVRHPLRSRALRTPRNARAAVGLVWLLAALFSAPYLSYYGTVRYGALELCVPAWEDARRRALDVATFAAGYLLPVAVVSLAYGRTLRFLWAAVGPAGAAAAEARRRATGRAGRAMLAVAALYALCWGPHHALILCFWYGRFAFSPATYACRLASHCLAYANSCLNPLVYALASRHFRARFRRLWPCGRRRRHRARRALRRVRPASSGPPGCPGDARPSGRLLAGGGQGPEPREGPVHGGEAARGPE
# Chain of Fructose-bisphosphate aldolase (P9WQA3 whole entry): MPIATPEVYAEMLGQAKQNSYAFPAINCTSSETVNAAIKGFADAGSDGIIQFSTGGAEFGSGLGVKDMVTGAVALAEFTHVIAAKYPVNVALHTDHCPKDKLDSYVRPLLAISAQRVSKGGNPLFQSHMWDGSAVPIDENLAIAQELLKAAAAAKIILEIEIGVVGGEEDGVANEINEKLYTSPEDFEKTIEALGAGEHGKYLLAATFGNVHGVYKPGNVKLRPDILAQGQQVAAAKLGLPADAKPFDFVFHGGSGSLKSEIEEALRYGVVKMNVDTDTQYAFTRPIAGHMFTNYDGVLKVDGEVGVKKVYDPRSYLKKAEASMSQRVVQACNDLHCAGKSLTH
structure (smiles),measurement,setting,value
CS(=O)(=O)c1ccc(Cl)c(NC(=O)c2ccc(-n3cncn3)c([N+](=O)[O-])c2)c1,IC50,[1],7.04 µM (active)
same,IC50,[2],83.3 µM (inactive)
same,IC50,[3],2.13 µM (active)
CCc1cc(=O)oc2cc(C)cc(OC(C)C(=O)NC3CCN(Cc4ccccc4)CC3)c12 (stereo not given),IC50,[4],1.52 µM (active)
CN(Cc1ccc2c(c1)CCCN2C)C(=O)[C@H]1O[C@@H](n2cnc3c(N)ncnc32)[C@H](O)[C@@H]1O,IC50,Galanin receptor type 3,3.97 µM (active)
same,EC50,cells [5],> 29.9 µM (inactive)
OCCNc1nc(Nc2ccccc2)nc2ccccc12,IC50,cells [6],> 29.9 µM (inactive)
same,EC50,[7],0.0634 µM (active)
same,IC50,[8],0.2 µM (active)
same,EC50,cells [9],> 29.9 µM (inactive)
